From patent publication US20230392121A1, “HYDROGELS FOR CELL CULTURE” (KATHOLIEKE UNIVERSITEIT LEUVEN, priority 2020, published 2023)
Like-named read-outs stand apart in the source and are kept apart here.

Assays:
[1] = tested on: HepMat co-cultures; assay: Co-treatment of HepMat co-cultures with OA & OCA or OA & ELN; format: cell-based, human; details: 800 μM OA with 1 μM OCA or 30 μM ELN, 3 days
Protocol: A similar effect was observed on proinflammatory parameters.
(§1) Oleic acid (OA) exposure of HepMat-co-cultures and mono-cultures: Day 32 HepMat co-cultures and Day 32 HepMat HC3x HLC, HSC and Mφ mono-cultures were incubated with 800 μM of OA (Sigma-Aldrich) for 7 days (addition on day 0 and day 3). Day 32 HepMat co-cultures were also incubated with a combination 800 μM of OA and 1 μM Obeticholic acid (OCA) (Company) or 800 μM of OA and 30 μM Elafibranor (ELN) (Company) for 3 days (addition on day 0 only). Expression of inflammatory and fibrogenic genes was determined by RT-1PCR. Supernatants were collected for pro-collagen measurement by ELISA on day 3 and day 7. In addition, co-culture were assayed for presence of steatosis by BODIPY® staining on day 3 and day 7 as follows: Gels were transferred to Glass Bottom plates (cellvis) for live-cell imaging, following incubation with BODIPY® 493/503 for lipids (Thermo Fisher Scientific) and Hoechst (Sigma Aldrich). Sample was visualised and scanned on a laser scanning confocal microscope (LSM 880, Zeiss, Germany),
(§2) The supernatant was assayed for human TNF-alpha, ILla1pha, and IL6 by ELISA (Biolegend, CA, USA), according to the manufacturer's instructions. Presence of pro-collagen type I was detected by Pro-collagen Type I C-peptide ELISA kit (Takara Bio Inc). Secreted level of TNF-alpha, IL1alpha, IL6 and pro-collagen 1 were normalised for the cell number.

[2] = phase III; cited from earlier work
[3] = tested on: HC3x HLC, HSC and Mφ mono-cultures; assay: Oleic acid exposure of HepMat mono-cultures; format: cell-based, human
Protocol: (§3) d32 HepMat co-cultures were also exposed to 0.8 mM OA for 3 days (1 dose) and 7 days (2 doses).
as §1
The supernatant was assayed for human TNF-alpha, ILla1pha, and IL6 by ELISA (Biolegend, CA, USA), according to the manufacturer's instructions. Presence of pro-collagen type I was detected by Pro-collagen Type I C-peptide ELISA kit (Takara Bio Inc). […]

[4] = tested on: HepMat co-cultures; assay: Oleic acid exposure of HepMat co-cultures (BODIPY, RT-qPCR, ELISA); format: cell-based, human
Protocol: as §3, §1, §2

[5] = tested on: iETV2-ECs; assay: Oleic acid treatment of iETV2-ECs; format: cell-based, human; details: OA treatment
Protocol: as §3

[6] = tested on: PSC-Mφs; assay: LPS exposure of HepMat-PSC-Mφ cultures; format: cell-based, human; details: 100 ng/ml LPS
Protocol: Mφs were generated from PSCs, using a protocol adapted from van Wilgenburg et al. (2013) PLoS One. 8, e71098 (FIG. 3C). […] Thus, PSC-Mφs could also be functionally maintained for at least 32 days in HepMat hydrogels.
LPS exposure of HepMat-PSC-MEs cultures: Day 32 HepMat-PSC-M[…]s mono-cultures were exposed to 100 ng/ml of LPS (Sigma-Aldrich). Expression of inflammatory genes was determined by RT-qPCR. Supernatants were collected for inflammatory cytokine measurement by ELISA.

[7] = tested on: HepMat co-cultures; assay: TGFβ exposure of HepMat co-cultures (RT-qPCR, ELISA); format: cell-based, human
Protocol: (§4) It was investigated whether HepMat co-cultures could be used to model liver fibrosis/steatosis, by exposing cultures either to TGFβ or oleic acid (OA). d32 HepMat co-cultures were treated with 25 ng/ml of TGFβ for an additional 3 days (single administration) or 7 days (2 administrations). […] In addition, TGFβ induced a 7±0.4-fold higher level of pro-collagen and 17±3.4-fold higher level of IL6 on day 7 of treatment in HepMat co-culture supernatants. Pro-collagen levels were unchanged in HC3x-HLCs and PSC-Mφ mono-cultures and ±3-fold increase in PSC-HSCs following 3 and 7 days of treatment with TGFβ.
(§5) TGFβ exposure of HepMat-co-cultures and mono-cultures: Day 32 HepMat co-cultures and dayy 32 HepMat HC3x HLC, HSC and Mφ mono-cultures were incubated with 25 ng/ml TGFβ for 7 days (addition on day 0 and day 3). Expression of inflammatory and fibrogenic genes was determined by RT-qPCR. Supernatants were collected for pro-collagen measurement by ELISA.
as §2

[8] = tested on: PSC-HSCs; assay: TGFβ exposure of HepMat-PSC-HSC cultures (24 h); format: cell-based, human; details: 25 ng/mL TGFβ
Protocol: Day 12 HSC expressed ACTA2, PDG1FRα, COL1A1, COL3A1, COL5A2 and LOXL2 but low levels of LRAT (important for Vitamin-A metabolism in quiescent HSCs) and the more recently identified non-fibrotic HSC marker genes, RGS5 and IGFBP5 (FIGS. 3B and 3E). Accutase-harvested d12 PSC-HSCs were embedded at 3×10^5 cells/10 μl HepMat hydrogel, and maintained for 32 days in HSC medium. HSCs survived for 32 days in the HepMat hydrogel (Calcein-AM staining; FIG. 3B). […] Consistently, HSCs cultured in HepMat hydrogels stored retinol, as shown by BODIPY® staining and presence of typical blue autofluorescence elicited by UV light, even when cultured with low concentrations of palmitic acid (FIG. 3B). […] Thus, PSC-HSCs can be maintained for at least 32 days in the HepMat hydrogels. Moreover, culture of HSCs in these hydrogels may at least in part induce a less fibrotic HSC phenotype while still allowing TGFβ-mediated activation.
TGFβ exposure of HepMat-PSC-HSC cultures: Day 32 HepMat-PSC-HSC mono-cultures hydrogels were exposed to 25 ng/ml of TGFβ (Peprotech) on day 32. Expression of inflammatory and fibrogenic genes was determined by RT-1PCR. Supernatants were collected for pro-collagen measurement by ELISA.

[9] = tested on: PSC-HSCs; assay: TGFβ exposure of PSC-HSC HepMat mono-cultures (3 and 7 days); format: cell-based, human
Protocol: as §4, §5, §2

[10] = tested on: HC3x-HLCs; assay: TGFβ exposure of HC3x-HLC HepMat mono-cultures; format: cell-based, human
Protocol: as §4, §5, §2

[11] = tested on: iETV2-ECs; format: cell-based, human
[12] = tested on: PSC-Mφs; assay: TGFβ exposure of PSC-Mφ HepMat mono-cultures; format: cell-based, human; details: supernatants
Protocol: as §4, §5, §2

[13] = 25 ng/ml TGFβ, d32 HepMat co-cultures

Question: For `CSc1ccc(C(=O)/C=C/c2cc(C)c(OC(C)(C)C(=O)O)c(C)c2)cc1` [ELN, elafibranor], which COL1A1 transcript levels [1] is on record?
Answer: inhibited

Question: And the IL6 transcripts [1]?
Answer: significantly reduced

Question: What about the bodipy staining [1] of the same compound?
Answer: significant reduction

Question: And the “pro-collagen secretion in culture supernatants” value [1]?
Answer: no effect

Question: And the “production of secreted IL6” value [1]?
Answer: did not inhibit

Question: And the “improvement of liver fibrosis compared to placebo” value [2]?
Answer: not significantly improve

Question: With `CCCCCCCC/C=C\CCCCCCCC(=O)O` [OA, oleic acid] as the compound, how does the “pro-collagen or inflammatory cytokines in supernatants” value ([3]; any of the mono-cultures) read?
Answer: no significant changes

Question: What about the “induction in COL1A1 and COL3A1 transcripts” value ([3]; mono-cultures, 3 days after OA addition) of the same compound?
Answer: ~9 fold

Question: What about the IL6 expression ([4]; 0.8 mM OA, d3) of the same compound?
Answer: 1200 fold

Question: What about the IL6 expression ([4]; 0.8 mM OA, d7) of the same compound?
Answer: 1000 fold

Question: And the “lipid accumulation, BODIPY staining” value ([4]; 0.8 mM OA, day 3, persisted until day 7)?
Answer: significant lipid accumulation

Question: What about the “induction of COL1A1, COL1A3, COL5A2 as well as LOXL2” value ([4]; 0.8 mM OA, day 7) of the same compound?
Answer: even greater induction

Question: What about the “increase in pro-collagen in supernatants” value ([4]; 3 day after administration of OA) of the same compound?
Answer: 5±0.5 fold

Question: And the “increase in pro-collagen in supernatants” value ([4]; 7 day after administration of OA)?
Answer: 12±1.5 fold

Question: And the “increase in IL6 in supernatants” value ([4]; day 7)?
Answer: 90±5 fold

Question: What about the “survival of iETV2-ECs” value [5] of the same compound?
Answer: did not survive

Question: With lipopolysaccharide [LPS] as the compound, how does the “secretion of TNFα, IL1α and IL6” value ([6]; ELISA, significant for IL6) read?
Answer: increased secretion of all three cytokines

Question: And the “expression of TNFα, IL1α and IL6” value ([6]; additional 48 hours, RT-qPCR)?
Answer: significantly induced

Question: Which “increase in transcripts for COL1A1” value [7, 13] does the source give for TGFβ here?
Answer: 17±3.5 fold

Question: What about the “increase in transcripts for COL3A1” value [7, 13] of the same compound?
Answer: 13±3.4 fold

Question: And the “increase in transcripts for COL5A2 or LOXL2” value [7, 13]?
Answer: but not COL5A2 or LOXL2

Question: What about the “induction of IL1α transcripts” value ([7]; TGFβ exposure for 7 days) of the same compound?
Answer: 7±0.49 fold

Question: What about the “induction of IL6 transcripts” value ([7]; TGFβ exposure for 7 days) of the same compound?
Answer: 13±4.3 fold

Question: And the “higher level of IL6 in supernatants” value ([7]; day 7 of treatment, ELISA)?
Answer: 17±3.4 fold

Question: And the “higher level of pro-collagen in supernatants” value ([7]; day 7 of treatment, ELISA)?
Answer: 7±0.4 fold

Question: What about the “secreted levels of pro-collagen” value ([8]; ELISA) of the same compound?
Answer: significantly higher levels

Question: What about the LRAT transcript levels ([8]; d32 HepMat HSCs) of the same compound?
Answer: significant decrease

Question: And the “expression of COL1A1” value ([8]; d32 HepMat HSCs)?
Answer: significant increase

Question: What about the “increase in pro-collagen levels” value ([9]; 3 and 7 days of treatment with TGFβ) of the same compound?
Answer: ~3 fold

Question: What about the “induction of COL1A1 and COL3A1 transcripts” value ([9]; d3) of the same compound?
Answer: 4±1.1 fold

Question: What about the “induction of COL1A1 transcripts” value ([10]; 3 days treatment) of the same compound?
Answer: 9±1.6 fold

Question: And the “induction of COL1A1 transcripts” value ([10]; 7 days treatment)?
Answer: 5±0.7 fold

Question: And the Pro-collagen levels ([10]; TGFβ, supernatants)?
Answer: unchanged

Question: What about the “survival of iETV2-ECs” value [11] of the same compound?
Answer: did not survive

Question: And the Pro-collagen levels [12]?
Answer: unchanged
